One test addresses T1, MMP-9 (Homo sapiens, UniProt P14780).
T1 construct: from tissue; host or cells: human polymorphonuclear leukocytes (PMN) from whole blood (New York Blood Center), PMA-stimulated supernatant
As to the kind of experiment: Thiopeptilide MMP-9 Inhibition Assay. In kind it is biochemical. The conditions noted are these: for IC50: pH 6.5, x (n) = average of n determinations, read-out: MMP-9: Thiopep. IC50; for inhibition at 5 µM: read-out: MMP-9: Thiopep. % inhibition.

A further test addresses T2, MMP-3 (Homo sapiens, UniProt P08254).
T2 construct: Truncated Prostromelysin-257 was expressed in a soluble form in E.coli; made in house; host or cells: E. coli
The experiment in a line: Primary Thiopeptilide MMP-3 Inhibition Assay. In kind it is biochemical. The conditions noted are these: for IC50: pH 6.5, 13 nM stromelysin, x (n) = average of n determinations, read-out: MMP-3 Thiopep. IC50; for inhibition at 5 µM: read-out: MMP-3 Thiopep. % inhibition.

Structures can show the parent of a compound that is named as a salt.

T2 sequence (P08254 100-274 limits assumed): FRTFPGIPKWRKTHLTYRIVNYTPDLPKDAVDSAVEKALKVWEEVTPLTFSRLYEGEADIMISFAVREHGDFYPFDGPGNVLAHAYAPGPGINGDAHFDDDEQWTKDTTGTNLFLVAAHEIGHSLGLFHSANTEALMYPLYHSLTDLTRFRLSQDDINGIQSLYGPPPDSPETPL
T1 sequence (P14780 107-707 limits assumed): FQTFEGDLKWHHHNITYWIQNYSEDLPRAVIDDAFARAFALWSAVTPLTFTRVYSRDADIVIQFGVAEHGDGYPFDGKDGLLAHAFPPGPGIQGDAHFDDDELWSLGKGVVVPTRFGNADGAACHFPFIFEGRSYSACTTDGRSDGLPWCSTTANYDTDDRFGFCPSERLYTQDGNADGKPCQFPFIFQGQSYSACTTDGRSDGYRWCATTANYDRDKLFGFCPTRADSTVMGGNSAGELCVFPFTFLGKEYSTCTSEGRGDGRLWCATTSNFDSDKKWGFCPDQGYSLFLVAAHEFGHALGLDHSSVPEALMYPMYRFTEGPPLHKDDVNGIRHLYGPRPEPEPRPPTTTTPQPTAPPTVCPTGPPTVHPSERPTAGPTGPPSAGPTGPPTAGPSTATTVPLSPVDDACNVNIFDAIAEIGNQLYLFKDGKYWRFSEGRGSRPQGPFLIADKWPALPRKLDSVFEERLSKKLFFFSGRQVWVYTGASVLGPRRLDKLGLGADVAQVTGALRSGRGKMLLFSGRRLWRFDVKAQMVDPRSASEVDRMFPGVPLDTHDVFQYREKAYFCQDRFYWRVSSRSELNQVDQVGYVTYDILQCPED
Method for MMP-3: Enzyme: recombinant stromelysin expressed in E.coli and purified as described above. […] The protocols for the assay of compounds as stromelysin inhibitors was the same as that used for MMP-9 except that the assay buffer was 50 mM MES, pH 6.5 containing 150 mM NaCl, 10 mM CaCl2, 0.005% Brij, and 1% DMSO.

As a reminder, the IC50 is the concentration that gives 50% inhibition. In the case of `COc1ccc(-c2ccc(C(=O)CC(CCCc3ccccc3)C(=O)O)cc2)cc1` (stereo not drawn) [Example 73, [1,1'-Biphenyl]-4-butanoic acid, 4'-methoxy-γ-oxo-α-(3-phenylpropyl)-], the results for the IC50 at MMP-9 and on MMP-3 were 600 nM and 220 nM, respectively.

The inhibition is the percentage by which the read-out fell short of the control. Consider `CCCCCCOc1ccc(-c2ccc(C(=O)CC(CCCc3ccccc3)C(=O)O)cc2)cc1` (stereo not drawn) [Example 88, [1,1'-Biphenyl]-4-butanoic acid, 4'-(hexyloxy)γ-oxo-α-(3-phenylpropyl)-], for which the inhibition at 5 µM on MMP-9 was 30%. Moreover, the 50% inhibitory concentration (IC50) at MMP-3 is 168 nM.

For `O=C(CC(COCc1ccccc1)C(=O)O)c1ccc(-c2ccc(Cl)cc2)cc1` (stereo not drawn) [Example 192, [1,1'-Biphenyl]-4-butanoic acid, 4'-chloro-γ-oxo-α-[(phenylmethoxy)methyl]-], the IC50 at MMP-9 came out at 510 nM; at MMP-3, 140 nM.

Regarding `NCc1ccc(-c2ccc(C(=O)CC(CCCc3ccccc3)C(=O)O)cc2)cc1` (stereo not drawn) [Example 59, [1,1'-Biphenyl]-4-butanoic acid, 4'-(aminomethyl)γ-oxo-α-(3-phenylpropyl)-], the half-inhibitory concentration (IC50) at MMP-9 was determined as 2000 nM. The inhibition at 5 µM on MMP-3 stood at 33%.

As to `O=C(CC(CSc1ccc(F)cc1)C(=O)O)c1ccc(-c2ccc(Cl)cc2)cc1` (stereo not drawn) [Example 208, [1,1'-Biphenyl]-4-butanoic acid, 4'-chloro-α-[[(4-fluorophenyl)thio]methyl]-γ-oxo-], the results for the half-inhibitory concentration (IC50) on MMP-9 and at MMP-3 were 1050 nM and 140 nM, respectively.

Turning to `O=C(O)[C@@H]1CCCC[C@H]1C(=O)c1ccc(-c2ccc(Cl)cc2)cc1` (relative stereo) [Example 285, Cyclohexanecarboxylic acid, 2-[(4'-chloro[1,1'-biphenyl]-4-yl)carbonyl]-, trans-], the inhibition at 5 µM on MMP-9 was found to be 21%. In addition, the IC50 at MMP-3 was 2500 nM.

`O=C(c1ccc(-c2ccc(Cl)cc2)cc1)[C@H]1CCC[C@H]1C(=O)O` (relative stereo) [Example 288, Cyclopentanecarboxylic acid, 2-[(4'-chloro[1,1'-biphenyl]-4-yl)carbonyl]-, cis-]: the inhibition at 5 µM is 46% at MMP-9 and 40% on MMP-3.

Take `O=C(O)/C=C/C(=O)c1ccc(-c2ccc(Cl)cc2)cc1` [Example 29, 4-Oxo-4-(4'-chloro-4-biphenyl)but-2-enoic acid, reference compound]: the inhibition at 5 µM at MMP-9 amounted to 44%; at MMP-3 it was 28%.

Regarding `O=C(CC(CCc1ccccc1)C(=O)O)c1ccc(-c2ccc([N+](=O)[O-])cc2)cc1` (stereo not drawn) [Example 124, [1,1'-Biphenyl]-4-butanoic acid, 4'-nitro-γ-oxo-α-(2-phenylethyl)-], the inhibition at 5 µM on MMP-9 came out at 28%. Also, on MMP-3, the IC50 was determined as 180 nM.

Consider `O=C(CC(CSc1ccccc1F)C(=O)O)c1ccc(-c2ccc(Cl)cc2)cc1` (stereo not drawn) [Example 218, [1,1'-Biphenyl]-4-butanoic acid, 4'-chloro-α-[[(2-fluorophenyl)thio]methyl]-γ-oxo-], for which the IC50 on MMP-9 was 435 nM; on MMP-3, 170 nM.

Regarding `CCN(CC)CCC(CC(=O)c1ccc(-c2ccc(Cl)cc2)cc1)C(=O)O` (stereo not drawn) [Example 264, [1,1'-Biphenyl]-4-butanoic acid, 4'-chloro-α-[2-(diethylamino)ethyl]-γ-oxo-, hydrochloride], the inhibition at 5 µM on MMP-3 was found to be 48%.

In the case of `O=Cc1ccc(-c2ccc(C(=O)CC(CCCc3ccccc3)C(=O)O)cc2)cc1` (stereo not drawn) [Example 78, [1,1'-Biphenyl]-4-butanoic acid, 4'-formyl-γ-oxo-α-(3-phenylpropyl)-], the IC50 on MMP-9 came out at 1200 nM; on MMP-3, 310 nM.

`CC(CC(=O)O)CC(=O)c1ccc(-c2ccc(Cl)cc2)cc1` (stereo not drawn) [Example 332, [1,1'-Biphenyl]-4-pentanoic acid, 4'-chloro-β-methyl-δ-oxo-, reference compound]: the inhibition at 5 µM at MMP-9 amounted to 41%; at MMP-3, 37%.

`O=C(CC(CCCc1ccccc1)C(=O)O)c1ccc(-c2ccc(Cl)cc2)s1` (stereo not drawn) [Example 349, 2-Thiophenebutanoic acid, 5-(4-chlorophenyl)-γ-oxo-α-(3-phenylpropyl)-]: the IC50 turned out to be 330 nM at MMP-9 and 550 nM at MMP-3.

Regarding `CC(C)CC(CC(=O)c1ccc(-c2ccccc2Cl)cc1)C(=O)O` (stereo not drawn) [Example 18, [1,1'-Biphenyl]-4-butanoic acid, 2'-chloro-α-(2-methylpropyl)-γ-oxo-], the inhibition at 5 µM at MMP-9 was determined as 9%; at MMP-3, 0.3%.

Take `COc1cccc(SCC(CC(=O)c2ccc(-c3ccc(Cl)cc3)cc2)C(=O)O)c1` (stereo not drawn) [Example 234, [1,1'-Biphenyl]-4-butanoic acid, 4'-chloro-α-[[(3-methoxyphenyl)thio]methyl]-γ-oxo-]: the IC50 amounted to 600 nM at MMP-9 and 144 nM at MMP-3.

Turning to `Cc1ccccc1SCC(CC(=O)c1ccc(-c2ccc(Cl)cc2)cc1)C(=O)O` (stereo not drawn) [Example 232, [1,1'-Biphenyl]-4-butanoic acid, 4'-chloro-α-[[(2-methylphenyl)thio]methyl]-γ-oxo-], the IC50 on MMP-9 came out at 200 nM; on MMP-3, 150 nM.

For `O=C(CC(CCCc1ccccc1)C(=O)O)c1ccc(-c2ccc(-c3nnn[nH]3)cc2)cc1` (stereo not drawn) [Example 57, [1,1'-Biphenyl]-4-butanoic acid, γ-oxo-α-(3-phenylpropyl)-4'-(1H-tetrazol-5-yl)-], the inhibition at 5 µM on MMP-9 came to 22%; on MMP-3, 16%.

On to `O=C(O)[C@H]1[C@@H](Sc2ccccc2)CC[C@@H]1C(=O)c1ccc(-c2ccc(Cl)cc2)cc1` (relative stereo) [Example 295], for which the IC50 on MMP-9 was found to be 600 nM; at MMP-3, 99 nM.

Regarding `CC(C)CC(CC(=O)c1ccc(-c2ccc(O)cc2)cc1)C(=O)O` (stereo not drawn) [Example 31, [1,1'-Biphenyl]-4-butanoic acid, 4'-hydroxy-α-(2-methylpropyl)γ-oxo-], the figures for the inhibition at 5 µM on MMP-9 and at MMP-3 were 29% and 56%, respectively.

Take `O=C(O)CCC(=O)c1ccc(-c2ccc(F)cc2)cc1` [Example 8, [1,1'-Biphenyl]-4-butanoic acid, 4'-fluoro-γ-oxo-, reference compound]: the inhibition at 5 µM at MMP-9 worked out at 0%; on MMP-3, 26%.

Take `O=C(O)CCC(=O)c1ccc(-c2ccccc2F)cc1` [Example 9, [1,1'-Biphenyl]-4-butanoic acid, 2'-fluoro-γ-oxo-, reference compound]: the inhibition at 5 µM on MMP-9 amounted to 3%; at MMP-3 it was 0%.

As to `O=C(C[C@H](C[S+]([O-])c1ccccc1)C(=O)O)c1ccc(-c2ccc(Cl)cc2)cc1` (stereo partly drawn) [Example 249, [1,1'-Biphenyl]-4-butanoic acid, 4'-chloro-γ-oxo-α-[(phenylsulfinyl)methyl]-, stereoisomer], at MMP-3, the concentration for half-maximal inhibition (IC50) stood at 1600 nM.

As for `CC(C)CC1CC(c2ccc(-c3ccc(Cl)cc3)cc2)OC1=O` (centres unmarked) [Example 35, 2(3H)-Furanone, 5-(4'-chloro[1,1'-biphenyl]-4-yl)dihydro-3-(2-methylpropyl)-, reference compound], the inhibition at 5 µM at MMP-3 worked out at 0%.

As to `CCCCCCCC(CC(=O)c1ccc(-c2ccc(Cl)cc2)cc1)C(=O)O` (stereo not drawn) [Example 122, [1,1'-Biphenyl]-4-butanoic acid, 4'-chloro-α-hepty-γ-oxo-], the concentration for half-maximal inhibition (IC50) on MMP-3 is 403 nM.

With `CC(CC(=O)c1ccc(-c2ccc(Cl)cc2)cc1)(Sc1ccccc1)C(=O)O` (stereo not drawn) [Example 245, [1,1'-Biphenyl]-4-butanoic acid, 4'-chloro-α-methyl-γ-oxo-α-(phenylthio)-], the inhibition at 5 µM at MMP-3 is 55%.

Consider `O=C(C[C@@H](CSc1ccccc1)C(=O)O)c1ccc(-c2ccc(Cl)cc2)cc1` [Example 198, 4-[4-(4-chlorophenyl)phenyl]-4-oxo-2R-(phenylthiomethyl)butanoic acid], for which, on MMP-9, the inhibition at 5 µM stood at 21%.

For the compound `COC(=O)c1ccccc1CCC(CC(=O)c1ccc(-c2ccc(Cl)cc2)cc1)C(=O)O` (stereo not drawn) [Example 142, [1,1'-Biphenyl]-4-butanoic acid, 4'-chloro-α-[2-[2-(methoxycarbonyl)phenyl]ethyl]-γ-oxo-], on MMP-3, the half-maximal inhibitory concentration (IC50) was determined as 310 nM.

For `O=C(CC(CSc1cccc(C(F)(F)F)c1)C(=O)O)c1ccc(-c2ccc(Cl)cc2)cc1` (stereo not drawn) [Example 236, [1,1'-Biphenyl]-4-butanoic acid, 4'-chloro-γ-oxo-α-[[[3-(trifluoromethyl)phenyl]thio]methyl]-], on MMP-3, the IC50 came out at 2000 nM.

Turning to `O=C(O)Cc1ccc(SCC(CC(=O)c2ccc(-c3ccc(Cl)cc3)cc2)C(=O)O)cc1` (stereo not drawn) [Example 238, [1,1'-Biphenyl]-4-butanoic acid, α-[[[4-(carboxymethyl)phenyl]thio]methyl]-4'-chloro-γ-oxo-], the IC50 on MMP-3 was 920 nM.

Consider `O=C(C[C@@H](C[S+]([O-])c1ccccc1)C(=O)O)c1ccc(-c2ccc(Cl)cc2)cc1` (stereo partly drawn) [Example 246, [1,1'-Biphenyl]-4-butanoic acid, 4'-chloro-γ-oxo-α-[(phenylsulfinyl)methyl]-, stereoisomer], for which the inhibition at 5 µM at MMP-3 was 14%.

Take `COC(=O)c1ccc(SCC(CC(=O)c2ccc(-c3ccc(Cl)cc3)cc2)C(=O)O)cc1` (stereo not drawn) [Example 237, [1,1'-Biphenyl]-4-butanoic acid, 4'-chloro-α-[[[4-(methoxycabonyl)phenyl]thio]methyl]-γ-oxo-]: the IC50 at MMP-3 is 2000 nM.

Turning to `O=C(CC(CCc1ccccc1I)C(=O)O)c1ccc(-c2ccc(Cl)cc2)cc1` (stereo not drawn) [Example 126, [1,1'-Biphenyl]-4-butanoic acid, 4'-chloro-α-[2-(2-iodophenyl)ethyl]-γ-oxo-], on MMP-3, the IC50 is 600 nM.

Consider `CCCCCCCCCCC(CC(=O)c1ccc(-c2ccc(Cl)cc2)cc1)C(=O)O` (stereo not drawn) [Example 123, [1,1'-Biphenyl]-4-butanoic acid, 4'-chloro-α-decyl-γ-oxo-], for which the inhibition at 5 µM on MMP-3 turned out to be 43%.

`O=C(C[C@H](C[S+]([O-])c1ccccc1)C(=O)O)c1ccc(-c2ccc(Cl)cc2)cc1` (stereo partly drawn) [Example 248, [1,1'-Biphenyl]-4-butanoic acid, 4'-chloro-γ-oxo-α-[(phenylsulfinyl)methyl]-, stereoisomer]: the IC50 on MMP-3 turned out to be 830 nM.

For the origin of these results see patent US5789434A, “Derivatives of substituted 4-biarylbutyric acid as matrix metalloprotease inhibitors” (priority 1995, dated 1998).
